Experimental data: patent publication US20250025525A1, “OCTAPEPTIDE FOR TOPICAL APPLICATION” (Alastin Skincare, Inc., priority 2022, published 2025)
Where no end group is shown, it is not given here.

Experiments:
[1] = system: dermal and epidermal hyaluronic acid levels; conditions: ex vivo human skin model; cited from earlier work
[2] = system: microfibrillar-associated protein 4 (MFAP4); assay: Ex vivo human skin tissue, MFAP4 immunofluorescent staining; conditions: once daily for 7 days, 20 μg/ml of each peptide
Experimental: (§1) Referring to FIG. 24, human skin tissue was defatted and cut into a diameter of approximately 7 mm and placed in a transwell insert with cell culture media (DMEM/F12 containing […] CaCl2), 2% fetal bovine serum, 50 μM adenine, 0.02 nM tri-iodothyronine, 1% ITS-X (insulin, transferrin, selenium mix), 1% glutagro (a glutamine equivalent), 1% pen/strep, and 1% gentamycin). The medium was changed daily. The human skin tissue samples were equilibrated for 3 days, then treated with the compounds noted in Table 6 once daily for 7 days. After 7 days of treatment, the skin samples were fixed in formalin and embedded in paraffin following industry standard procedures. The resulting blocks were prepared and sectioned for immunofluorescent staining.
(§2) Antibodies directed to tropoelastin (TE) (available from Elastin, Owensville, MO) and antibodies against microfibrillar-associated protein 4 (MFAP4) (available from ThermoFisher Waltham, MA) were used to detect the production of new elastin in the treated cells. The appropriate fluorescent secondary antibodies were used for detection by fluorescence microscopy. Images were obtained and analyzed using ImageJ software.
(§3) Data was obtained from a minimum of three donor skin samples and replicates or triplicates were performed for each compound treated.

Hyaluronidase 2 (HYAL2) = assay: RNA-Seq gene expression of HYAL2 in keratinocytes; type: cell-based, Human; conditions: 24 hr, 100 μg/ml
Experimental: (§4) Cell Lines. Human adult dermal fibroblast and keratinocyte cell lines were treated with 11 different compound treatments (plus DMSO control as treatment #12Primary cells were plated in cell specific media at 5K or 10K cells per cm^2. Cells were plated in 48 well plates (Greiner) in triplicate, one cell line per plate. Media volume was 500 ul per well. Outer two columns of wells were not used. All rows were used. Cells were cultured for 2 days in 37° C. 5% CO2 incubator. After 48 hours all the cell cultures were uniform and appeared healthy, no appreciable number of floating dead cells or evidence of vacuolization of cells that might indicate apoptotic or dying cells.
(§5) Compounds. Stocks of compounds 1 through 8 on the list below were prepared in PBS. […] This stock was 100× of final concentration. A 20 mg/ml stock of compound 10 (CBD) was prepared in DMSO. No undissolved particulates were observed but the stock solution was slightly cloudy, not completely clear. […]
(§6) RNA Lysate preparation. […] All samples were shipped frozen on dry ice for RNA extraction, library construction and sequencing to 25M paired end 100 bp reads per sample.
(§7) RNA-Seq. All the RNA samples were shipped frozen on dry ice for RNA extraction, library construction and sequencing to 25M paired end 100 bp reads per sample. Differentially expressed genes were identified and pathway enrichment was assessed using the Reactome Pathway.

dermal fibroblasts = assay: HA production and size assessment by PAGE of fibroblast supernatant; type: cell-based, human; conditions: 1× and 10× (100 μg/ml and 1000 μg/ml), 72 hr, 4 experiments
Experimental: Dermal fibroblasts were cultured in growth medium until near confluence in 6-well plates. When they reached confluence, the growth medium was replaced with serum-free medium for 24 hours. After 72 hr, 100 μl of media was collected from each treatment condition. The media was concentrated in a SpeedVac concentrator to a final volume of ˜10 μl. All 10 μl from each condition, were loaded onto an acrylamide gel (NuPAGE 4-12% Bis-Tris Protein Gel, Invitrogen, Waltham, MA). Sodium Hyaluronate, Research Grade, (HA2M) from Lifecore Biomedical (Chaska, MN) was reconstituted as recommended by the manufacturer and served as a MW reference, representing high MW HA. The gel was run at 200V for 3 hours to separate MW sizes from proteins and ECM components isolated from the supernatants along with the HA2M reference as a comparator. Gel buffer was exchanged with fresh room temperature buffer every 20 minutes to avoid overheating. The gel was stained using Stains-All (Millipore Sigma, Burlington, MA) and destained according to the manufacturer's protocol. […]
Human dermal fibroblasts were treated with Octapeptide (1× and 10×; corresponding to 100 μg/ml and 1000 μg/ml respectively) or left untreated. […] The experiment was conducted 4 times and the density of the bands from each supernatant were quantified (arbitrary units (AU)) using ImageJ. […]

tropoelastin (TE) = assay: Ex vivo human skin tissue, tropoelastin immunofluorescent staining; conditions: once daily for 7 days, 20 μg/ml of each peptide
Experimental: as §1, §2, §3

[3] = system: Hyaluronic Acid Synthase 2 (HAS2); assay: RNA-Seq gene expression of HAS2 in dermal fibroblasts; type: cell-based, Human; conditions: 24 hr, Octapeptide 100 μg/ml
Experimental: as §4, §5, §6, §7

[4] = system: Early Growth Response 3 (EGR3); assay: RNA-Seq gene expression of EGR3 in keratinocytes; type: cell-based, Human; conditions: 24 hr, Hexapeptide 11 100 μg/ml
Experimental: as §4, §5, §6, §7

[5] = system: Hyaluronic Acid Synthase 2 (HAS2); assay: RNA-Seq gene expression of HAS2 in keratinocytes; type: cell-based, Human; conditions: 24 hr, Hexapeptide 11 100 μg/ml
Experimental: as §4, §5, §6, §7

| Compound | stimulation of dermal hyaluronic acid levels versus placebo [1] [%] | stimulation of epidermal hyaluronic acid levels versus placebo [1] [%] | MFAP4 expression vs untreated skin [2] | HYAL2 gene expression, fold-change relative to the non-treated cells (Hyaluronidase 2 (HYAL2)) | production of high MW HA (band density, AU) (dermal fibroblasts) | TE expression vs untreated skin (tropoelastin (TE)) | HAS2 gene expression, fold-change relative to the non-treated cells [3] | upregulation of EGR3 gene expression relative to the non-treated cells [4] | HAS2 gene expression, fold-change relative to the non-treated cells [5] |
| --- | --- | --- | --- | --- | --- | --- | --- | --- | --- |
| CCCCCCCC(=O)CCc1ccc(O)c(OC)c1 [Hydroxymethoxyphenyl decanone] | 259 | 198 | – | – | – | – | – | – | – |
| GPHGVREA [octapeptide-45, proprietary peptide designed by R&D at Alastin; octapeptide included in HA Immerse Serum] | – | – | increases | modest downregulation | dose-responsive increase in the production of high MW HA | increases | excellent stimulation | – | – |
| Hexapeptide-11 | – | – | – | potent downregulation | – | – | – | about seven | excellent upregulation |
